target: T1, human MCH-1R (Homo sapiens, UniProt Q99705); test: MCH binding inhibition test; settings: membranes of MCH-1R expressing CHO-K1 cells, 50 pM [125I]MCH, 25° C., one hour, pH 7.4; read-out: IC50 (50% inhibition concentration to the specific [125I]MCH binding)
T1 construct: expressed in transfected cells; host or cells: CHO-K1 (American Type Culture Collection); membrane samples
From the text: Pharmacological Test Example 1 (MCH Binding Inhibition Test)
A human MCH-1R encoding cDNA sequence [FEBS Letters, Vol. 398, 253 (1996); Biochimica et Biophisica Acta, Vol. 1401, 216 (1998)] was cloned to a plasmid vector pEF/myc/cyto (Invitrogen Corporation). The obtained expression vector was transfected to host cells CHO-K1 (American Type Culture Collection) using Lipofectamine Plus Reagent (Life Technology Inc.) to provide MCH-1R expression cells.
Membrane samples prepared from the MCH-1R expression cells were incubated with each test compound and 50 pM of [^125I]MCH (NEN Co.), in an assay buffer (50 mM Tris buffer comprising 10 mM magnesium chloride, 2 mM ethylenediamine tetraacetate, 0.01% bacitracin and 0.2% bovine serum albumin; pH 7.4) at 25° C. for an hour, followed by filtration through a glass filter GF/C (Wattman Co.). After washing the glass filter with 50 mM Tris buffer (pH 7.4) comprising 10 mM magnesium chloride, 2 mM ethylenediamine tetraacetate and 0.04% Tween-20, the radioactive activity on the glass filter was measured. The non-specific binding was measured in the presence of 1 μM human MCH and 50% inhibition concentration (IC50 value) of each test compound to the specific [^125I]MCH binding was determined.

T1 sequence (Q99705 whole entry): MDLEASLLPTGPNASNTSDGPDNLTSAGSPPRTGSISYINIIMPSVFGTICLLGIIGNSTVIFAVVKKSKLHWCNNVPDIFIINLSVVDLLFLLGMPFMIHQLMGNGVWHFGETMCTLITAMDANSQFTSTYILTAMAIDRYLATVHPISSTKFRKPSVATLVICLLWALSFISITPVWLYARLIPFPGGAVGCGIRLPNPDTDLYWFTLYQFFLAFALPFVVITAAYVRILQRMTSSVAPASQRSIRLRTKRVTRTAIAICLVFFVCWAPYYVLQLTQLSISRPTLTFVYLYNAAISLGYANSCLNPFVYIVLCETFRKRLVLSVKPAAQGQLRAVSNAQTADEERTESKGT

Question: Which IC50 does the source give for `CCN(C)C/C=C/c1ccc(-n2ccc(OCc3ccc(Cl)cc3)cc2=O)cc1` [Example 3, 4-[(4-Chlorobenzyl)oxy]-1-(4-{(1E)-3-[ethyl(methyl)amino]-1-propen-1-yl}phenyl)pyridin-2(1H)-one] here?
Answer: 1.5 nM

Question: How did the IC50 turn out when `CCCN(C)C/C=C/c1ccc(-n2ccc(OCc3ccc(Cl)cc3)cc2=O)cc1` [Example 4, 4-[(4-Chlorobenzyl)oxy]-1-(4-{(1E)-3-[propyl(methyl)amino]-1-propen-1-yl}phenyl)pyridin-2(1H)-one] was run?
Answer: 1.2 nM

Question: Which IC50 does the source give for `CC(C)N(C)C/C=C/c1ccc(-n2ccc(OCc3ccc(Cl)cc3)cc2=O)cc1` [Example 5, 4-[(4-Chlorobenzyl)oxy]-1-(4-{(1E)-3-[isopropyl(methyl)amino]-1-propen-1-yl]phenyl}pyridin-2(1H)-one] here?
Answer: 1.4 nM

Question: How did the IC50 turn out when `CCCCN(C)C/C=C/c1ccc(-n2ccc(OCc3ccc(Cl)cc3)cc2=O)cc1` [Example 6, 4-[(4-Chlorobenzyl)oxy]-1-(4-{(1E)-3-[butyl(methyl)amino]-1-propen-1-yl}phenyl)pyridin-2(1H)-one] was run?
Answer: 0.93 nM

Question: Which IC50 does the source give for `CN(C)C/C=C/c1ccc(-n2ccc(OCc3ccc(Cl)cc3)cc2=O)cc1` [Example 8, 4-[(4-Chlorobenzyl)oxy]-1-(4-[(1E)-3-(dimethylamino)-1-propen-1-yl]phenyl)pyridin-2(1H)-one] here?
Answer: 1.4 nM

Question: For `O=c1cc(OCc2ccc(F)cc2)ccn1-c1ccc(NCCN2CCCC2)cc1` [Example 14, 4-[(4-Fluorobenzyl)oxy]-1-{4-[(2-pyrrolidin-1-ylethyl)amino]phenyl}pyridin-2(1H)-one], which IC50 is on record?
Answer: 4.5 nM

Question: `CO[C@H]1CCN(CCc2ccc(-n3ccc(OCc4ccc(F)cc4)cc3=O)cc2)C1` [Example 27, 4-[(4-Fluorobenzyl)oxy]-1-(4-{2-[(3S)-3-methoxypyrrolidin-1-yl]ethyl}phenyl)pyridin-2(1H)-one] was tested. Which IC50 did it give?
Answer: 5.8 nM

Question: How did the IC50 turn out when `CCN(CC)CCc1ccc(-n2ccc(OCc3ccc(Cl)cn3)cc2=O)cc1` [Example 32, 4-[(5-Chloropyridin-2-yl)methoxy]-1-{4-[2-(diethylamino)ethyl]phenyl}pyridin-2(1H)-one] was run?
Answer: 6.2 nM

Question: For `O=c1cc(OCc2ccc(Cl)cn2)ccn1-c1ccc(CCNC2CCCC2)cc1` [Example 37, 4-[(5-Chloropyridin-2-yl)methoxy]-1-{4-[(2-cyclopentylamino)ethyl]phenyl}pyridin-2(1H)-one], which IC50 is on record?
Answer: 4.6 nM

Question: How did the IC50 turn out when `O=c1cc(OCc2ccc(F)cc2)ccn1-c1ccc([C@H]2C[C@H](N3CCCC3)C2)cc1` [Example 53, 4-[(4-Fluorobenzyl)oxy]-1-[4-(trans-3-pyrrolidin-1-ylcyclobutyl)phenyl]pyridin-2(1H)-one] was run?
Answer: 3.5 nM

Reference: patent US7875633B2, “Phenylpyridone derivative” (Banyu Pharmaceutical Co., Ltd., priority 2005, dated 2011)
